From patent US20240101570A1 (AMGEN INC., priority 2020, published 2024)

Tests used:
[1] = tested on: HCT116 WT cells; assay: HCT116 WT cell proliferation / viability (CellTiter-Glo, 6 days); assay type: cell-based; settings: Homo sapiens, HCT-116, 144 h, HCT116 WT cells, 6 days, CellTiter-Glo; read-out: HCT-116 WT IC50
Outline: (§1)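 CellTiter-Glo luminescence, 6-day exposure, RPMI 1640 + 10% FBS. Dosing: 1:3 series (8-9 pts, top 1 or 10 μM) or 1:2 series (22 pts, top 10 or 50 μM), DMSO control. IC50 = 50% of control via curve fit.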

[2] = tested on: HCT116 MTAP null cells; assay: HCT116 MTAP null cell proliferation / viability (CellTiter-Glo, 6 days); assay type: cell-based; settings: HCT116-MTAP null, 144 h, HCT116 MTAP null cells, 6 days, CellTiter-Glo; read-out: HCT-116 MTAP null IC50
Outline: as §1

Compound	IC50 [1] [nM]	IC50 [2] [nM]
CCN(Cc1ccc(C2CC2)cn1)C(=O)c1ccc2nc(N)c3c(c2c1)COC3 [Example 539, 4-amino-N-((5-cyclopropyl-2-pyridinyl)methyl)-N-ethyl-1,3-dihydrofuro[3,4-c]quinoline-8-carboxamide]	2100	106
CCN(Cc1ccc(C2CC2)cn1)C(=O)c1ccc2nc(N)c3cnn(C)c3c2c1 [Example 540, 4-amino-N-((5-cyclopropyl-2-pyridinyl)methyl)-N-ethyl-1-methyl-1H-pyrazolo[4,3-c]quinoline-8-carboxamide]	1480	39
CCN(Cc1ccc(C2CC2)cn1)C(=O)c1cc2c(cn1)nc(N)c1cnn(C)c12 [Example 541, 4-amino-N-((5-cyclopropyl-2-pyridinyl)methyl)-N-ethyl-1-methyl-1H-pyrazolo[4,3-c][1,7]naphthyridine-8-carboxamide]	548	37
CCN(Cc1ccc(C2CC2)cn1)C(=O)c1ccc2nc(N)c3c(c2c1)CO[C@@H]3C [Example 542, (3R)-4-amino-N-((5-cyclopropyl-2-pyridinyl)methyl)-N-ethyl-3-methyl-1,3-dihydrofuro[3,4-c]quinoline-8-carboxamide]	1540	35
CN(Cc1ccc(C(F)(F)F)cc1)C(=O)c1ccc2nc(N)c3cnn(C)c3c2c1 [Example 543, 4-amino-N,1-dimethyl-N-(4-(trifluoromethyl)benzyl)-1H-pyrazolo[4,3-c]quinoline-8-carboxamide]	2010	57
CN(Cc1ccc(C(F)(F)F)cc1)C(=O)c1cc2c(cn1)nc(N)c1cnn(C)c12 [Example 544, 4-amino-N,1-dimethyl-N-(4-(trifluoromethyl)benzyl)-1H-pyrazolo[4,3-c][1,7]naphthyridine-8-carboxamide]	2320	56
CCN(Cc1ccc(C2CC2)cn1)C(=O)c1cc2c(cc1F)nc(N)c1cnn(C)c12 [Example 545, 4-amino-N-((5-cyclopropyl-2-pyridinyl)methyl)-N-ethyl-7-fluoro-1-methyl-1H-pyrazolo[4,3-c]quinoline-8-carboxamide]	140	7
CCN(Cc1ccc(C(F)(F)F)cn1)C(=O)c1ccc2nc(N)c3cnn(C)c3c2c1 [Example 546, 4-amino-N-ethyl-1-methyl-N-((5-(trifluoromethyl)-2-pyridinyl)methyl)-1H-pyrazolo[4,3-c]quinoline-8-carboxamide]	976	19
CCN(Cc1ccc(C(F)(F)F)cn1)C(=O)c1ccc2nc(N)c3c(C)noc3c2c1 [Example 547, 4-amino-N-ethyl-3-methyl-N-((5-(trifluoromethyl)-2-pyridinyl)methyl)[1,2]oxazolo[4,5-c]quinoline-8-carboxamide]	24500	668
CCN(Cc1ccc(C(F)(F)F)nn1)C(=O)c1ccc2nc(N)c3cnn(C)c3c2c1 [Example 548, 4-amino-N-ethyl-1-methyl-N-((6-(trifluoromethyl)-3-pyridazinyl)methyl)-1H-pyrazolo[4,3-c]quinoline-8-carboxamide]	6870	78
CCN(Cc1ccc(C(F)(F)F)cn1)C(=O)c1cc2c(cn1)nc(N)c1cnn(C)c12 [Example 549, 4-amino-N-ethyl-1-methyl-N-((5-(trifluoromethyl)-2-pyridinyl)methyl)-1H-pyrazolo[4,3-c][1,7]naphthyridine-8-carboxamide]	487	20
CCN(Cc1ccc(C(F)(F)F)nn1)C(=O)c1cc2c(cn1)nc(N)c1cnn(C)c12 [Example 550, 4-amino-N-ethyl-1-methyl-N-((6-(trifluoromethyl)-3-pyridazinyl)methyl)-1H-pyrazolo [4,3-c][1,7]naphthyridine-8-carboxamide]	1800	66
CCN(Cc1ccc(C(F)(F)F)nn1)C(=O)c1ccc2nc(N)c3c(c2c1)CO[C@@H]3C [Example 551, (3R)-4-amino-N-ethyl-3-methyl-N-((6-(trifluoromethyl)-3-pyridazinyl)methyl)-1,3-dihydrofuro[3,4-c]quinoline-8-carboxamide]	5570	125
CN(Cc1ccc(C(F)(F)F)cc1)C(=O)c1cc2c(cc1F)nc(N)c1cnn(C)c12 [Example 552, 4-amino-7-fluoro-N,1-dimethyl-N-(4-(trifluoromethyl)benzyl)-1H-pyrazolo[4,3-c]quinoline-8-carboxamide]	1880	25
CCN(Cc1ccc(C(F)(F)F)cn1)C(=O)c1cc2c(cn1)nc(N)c1c(C)nn(C)c12 [Example 553, 4-amino-N-ethyl-1,3-dimethyl-N-((5-(trifluoromethyl)-2-pyridinyl)methyl)-1H-pyrazolo[4,3-c][1,7]naphthyridine-8-carboxamide]	12400	247
CCN(Cc1ccc(C(F)(F)F)cn1)C(=O)c1cc2c(cc1F)nc(N)c1cnn(C)c12 [Example 554, 4-amino-N-ethyl-7-fluoro-1-methyl-N-((5-(trifluoromethyl)-2-pyridinyl)methyl)-1H-pyrazolo[4,3-c]quinoline-8-carboxamide]	181	8
CCN(Cc1ccc(C(F)(F)F)nn1)C(=O)c1cc2c(cc1F)nc(N)c1cnn(C)c12 [Example 555, 4-amino-N-ethyl-7-fluoro-1-methyl-N-((6-(trifluoromethyl)-3-pyridazinyl)methyl)-1H-pyrazolo[4,3-c]quinoline-8-carboxamide]	2040	23
CCN(Cc1ccc(C(F)(F)F)cn1)C(=O)c1cc2c3c(c(N)nc2cc1F)[C@@H](C)OC3 [Example 556, (3R)-4-amino-N-ethyl-7-fluoro-3-methyl-N-((5-(trifluoromethyl)-2-pyridinyl)methyl)-1,3-dihydrofuro[3,4-c]quinoline-8-carboxamide]	458	14
CCN(Cc1ccc(C(F)(F)F)cn1)C(=O)c1cc2c3c(c(N)nc2cc1F)[C@H](C)OC3 [Example 557, (3S)-4-amino-N-ethyl-7-fluoro-3-methyl-N-((5-(trifluoromethyl)-2-pyridinyl)methyl)-1,3-dihydrofuro[3,4-c]quinoline-8-carboxamide]	12300	375
CN(Cc1ccc(C(F)(F)F)cc1)C(=O)c1cc2c(cc1Cl)nc(N)c1cnn(C)c12 [Example 558, 4-amino-7-chloro-N,1-dimethyl-N-(4-(trifluoromethyl)benzyl)-1H-pyrazolo[4,3-c]quinoline-8-carboxamide]	421	19
CCN(Cc1ccc(C(F)(F)F)nn1)C(=O)c1cc2c3c(c(N)nc2cc1F)[C@@H](C)OC3 [Example 559, (3R)-4-amino-N-ethyl-7-fluoro-3-methyl-N-((6-(trifluoromethyl)-3-pyridazinyl)methyl)-1,3-dihydrofuro[3,4-c]quinoline-8-carboxamide]	1180	30
CCN(Cc1ccc(C(F)(F)F)cn1)C(=O)c1cc2c(cc1F)nc(N)c1c(C)nn(C)c12 [Example 560, 4-amino-N-ethyl-7-fluoro-1,3-dimethyl-N-((5-(trifluoromethyl)-2-pyridinyl)methyl)-1H-pyrazolo[4,3-c]quinoline-8-carboxamide]	4140	56
CN(Cc1ccc(C(F)(F)C(F)(F)F)cc1)C(=O)c1ccc2nc(N)c3cnn(C)c3c2c1 [Example 561, 4-amino-N,1-dimethyl-N-(4-(pentafluoroethyl)benzyl)-1H-pyrazolo[4,3-c]quinoline-8-carboxamide]	5330	89
CN(Cc1ccc(C(F)(F)C(F)(F)F)cc1)C(=O)c1cc2c(cn1)nc(N)c1cnn(C)c12 [Example 562, 4-amino-N,1-dimethyl-N-(4-(pentafluoroethyl)benzyl)-1H-pyrazolo[4,3-c][1,7]naphthyridine-8-carboxamide]	3530	86
CN(Cc1ccc(C(F)(F)C(F)(F)F)cc1)C(=O)c1cc2c(cc1F)nc(N)c1cnn(C)c12 [Example 563, 4-amino-7-fluoro-N,1-dimethyl-N-(4-(pentafluoroethyl)benzyl)-1H-pyrazolo[4,3-c]quinoline-8-carboxamide]	2080	28
CCN(Cc1ccc(S(F)(F)(F)(F)F)cc1)C(=O)c1ccc2nc(N)c3cnn(C)c3c2c1 [Example 564, 4-amino-N-ethyl-1-methyl-N-(4-(pentafluoro-lambda~6~- sulfanyl)benzyl)-1H-pyrazolo[4,3-c]quinoline-8-carboxamide]	925	21
CCN(Cc1ccc(S(F)(F)(F)(F)F)cc1)C(=O)c1cc2c(cn1)nc(N)c1cnn(C)c12 [Example 565, 4-amino-N-ethyl-1-methyl-N-(4-(pentafluoro-lambda~6~- sulfanyl)benzyl)-1H-pyrazolo[4,3-c][1,7]naphthyridine-8-carboxamide]	653	19
CCN(Cc1ccc(S(F)(F)(F)(F)F)cc1)C(=O)c1cc2c(cc1F)nc(N)c1cnn(C)c12 [Example 566, 4-amino-N-ethyl-7-fluoro-1-methyl-N-(4-(pentafluoro-lambda~6~-sulfanyl)benzyl)-1H-pyrazolo[4,3-c]quinoline-8-carboxamide]	181	13
CN(Cc1ccc(C(F)(F)F)cn1)C(=O)c1ccc2nc(N)c3cnn(C)c3c2c1 [Example 567, 4-amino-N,1-dimethyl-N-((5-(trifluoromethyl)-2-pyridinyl)methyl)-1H-pyrazolo[4,3-c]quinoline-8-carboxamide]	6790	90
